Measured values published in patent EP1737880B1, “17ALPHA-FLUORO-17BETA-HYDROXI[…], A METHOD FOR PRODUCTION THEREOF AND PHARMACEUTICAL COMPOSITIONS COMPRISING SAID COMPOUNDS” (Bayer Schering Pharma Aktiengesellschaft, priority 2004, dated 2005).

Legend:
Progesteronrezeptor = molecular target: T1, Progesteronrezeptor (Oryctolagus cuniculus, UniProt P06186); experiment: Binding to the progesterone receptor (relative binding affinity, tracer 3H-ORG 2058); details: Uterus-Cytosol, Kaninchen, geprimt, 0-4°C, 18 h, Referenzsubstanz Progesteron = 100%
T1 construct: Uterus-Cytosol, Kaninchen, geprimt; from tissue; host or cells: uterus cytosol of primed rabbits
T1 sequence (P06186 1-930): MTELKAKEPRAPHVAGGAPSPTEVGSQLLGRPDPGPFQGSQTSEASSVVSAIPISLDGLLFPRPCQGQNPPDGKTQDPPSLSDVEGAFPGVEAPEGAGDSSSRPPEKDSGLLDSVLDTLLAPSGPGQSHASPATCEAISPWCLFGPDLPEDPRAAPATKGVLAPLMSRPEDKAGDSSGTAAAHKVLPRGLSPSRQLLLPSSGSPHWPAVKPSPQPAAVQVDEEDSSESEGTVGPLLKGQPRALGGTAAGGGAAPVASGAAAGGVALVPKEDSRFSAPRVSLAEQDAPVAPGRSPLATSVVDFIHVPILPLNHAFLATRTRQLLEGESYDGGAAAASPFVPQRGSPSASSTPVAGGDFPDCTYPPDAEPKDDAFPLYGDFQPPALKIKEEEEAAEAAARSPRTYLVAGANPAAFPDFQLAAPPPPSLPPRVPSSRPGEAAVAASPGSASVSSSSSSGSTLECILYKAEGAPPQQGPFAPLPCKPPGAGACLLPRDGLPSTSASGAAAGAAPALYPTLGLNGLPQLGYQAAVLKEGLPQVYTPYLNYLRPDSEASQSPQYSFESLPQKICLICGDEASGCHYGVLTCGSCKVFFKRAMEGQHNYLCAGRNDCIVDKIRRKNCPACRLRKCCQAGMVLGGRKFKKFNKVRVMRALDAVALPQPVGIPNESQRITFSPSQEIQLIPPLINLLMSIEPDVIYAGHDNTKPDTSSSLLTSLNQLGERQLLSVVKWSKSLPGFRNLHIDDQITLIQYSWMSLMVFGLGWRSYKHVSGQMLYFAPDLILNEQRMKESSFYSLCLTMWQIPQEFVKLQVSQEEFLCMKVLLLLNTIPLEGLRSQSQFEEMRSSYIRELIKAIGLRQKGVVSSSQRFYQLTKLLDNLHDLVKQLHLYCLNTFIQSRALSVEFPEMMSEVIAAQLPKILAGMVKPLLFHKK
Source text: Bindung der Verbindung I an den Progesteronrezeptor

Maus = experiment: Gestagenic activity in the pregnancy maintenance test, mouse; format: in vivo
5α-Reduktase-Typ2 = molecular target: T2, 5α-Reduktase-Typ2 (Homo sapiens, UniProt P31213); experiment: 5α-reductase type 2 activity in genital skin homogenates; format: biochemical; details: Genitalhaut-Homogenate, optimised conditions, pH 5.5
T2 construct: In Genitalhaut-Homogenaten unter optimierten Bedingungen bei pH 5.5; from tissue; host or cells: genital skin homogenate
T2 sequence (P31213 1-254): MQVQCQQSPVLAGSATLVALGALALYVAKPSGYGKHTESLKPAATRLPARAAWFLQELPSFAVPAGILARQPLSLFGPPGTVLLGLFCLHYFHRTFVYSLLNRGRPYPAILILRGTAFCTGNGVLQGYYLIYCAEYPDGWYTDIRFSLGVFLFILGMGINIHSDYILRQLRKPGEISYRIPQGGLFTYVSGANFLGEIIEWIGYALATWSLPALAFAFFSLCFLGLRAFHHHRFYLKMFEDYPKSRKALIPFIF
Source text: Nachfolgend sind beispielhafte Daten zur Progesteronrezeptorbindung, 5α-Reduktase-Typ2-Aktivität in Genitalhaut-Homogenaten und in vivo- Daten am Beispiel von (E)-17α-Fluor-3-oxo-estr-4-en-17β-carbaldehyd oxim aufgeführt

PR-B = molecular target: T3, PR-B (Homo sapiens, UniProt P06401); experiment: PR-B antagonism and agonism; format: cell-based
T3 sequence (P06401 1-933): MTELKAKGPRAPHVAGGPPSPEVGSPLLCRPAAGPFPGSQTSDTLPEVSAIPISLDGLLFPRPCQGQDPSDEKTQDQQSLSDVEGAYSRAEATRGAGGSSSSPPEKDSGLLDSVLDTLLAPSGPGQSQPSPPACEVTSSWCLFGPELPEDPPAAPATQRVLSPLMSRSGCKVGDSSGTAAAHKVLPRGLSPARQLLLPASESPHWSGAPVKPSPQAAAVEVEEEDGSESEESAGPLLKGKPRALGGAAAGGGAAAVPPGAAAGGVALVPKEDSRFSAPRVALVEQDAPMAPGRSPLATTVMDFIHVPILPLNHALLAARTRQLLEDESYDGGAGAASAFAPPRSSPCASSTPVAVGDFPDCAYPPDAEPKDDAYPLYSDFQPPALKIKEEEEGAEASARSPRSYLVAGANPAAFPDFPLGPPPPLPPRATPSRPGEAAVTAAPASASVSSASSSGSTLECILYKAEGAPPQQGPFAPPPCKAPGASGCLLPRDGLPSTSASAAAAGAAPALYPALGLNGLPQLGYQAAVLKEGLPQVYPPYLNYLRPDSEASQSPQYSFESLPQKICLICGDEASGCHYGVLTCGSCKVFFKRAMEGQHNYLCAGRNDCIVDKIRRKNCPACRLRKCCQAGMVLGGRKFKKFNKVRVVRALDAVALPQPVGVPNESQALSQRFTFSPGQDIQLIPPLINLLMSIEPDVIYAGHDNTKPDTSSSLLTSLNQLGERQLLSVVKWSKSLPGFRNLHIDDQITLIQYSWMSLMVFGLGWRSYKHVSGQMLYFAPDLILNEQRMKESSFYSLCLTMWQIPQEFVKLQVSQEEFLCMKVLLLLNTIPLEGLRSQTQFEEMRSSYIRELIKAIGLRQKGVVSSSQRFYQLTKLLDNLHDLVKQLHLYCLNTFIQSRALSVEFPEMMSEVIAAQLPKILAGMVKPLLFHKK
Source text: PR-B Antagonismus und Agonismus

`C[C@]12CC[C@H]3[C@@H](CCC4=CC(=O)CC[C@@H]43)[C@@H]1CC[C@]2(F)/C=N/O` [Verbindung 7, (E)-17α-Fluor-3-oxo-estr-4-en-17β-carbaldehyd oxim] was tested, and the “Relative Bindungsaffinität RBA[%]” value (Progesteronrezeptor) was 131 ± 9%, the “Rate der erhaltenen Graviditäten” value (Maus; Dosis 0,03 mg/Tier/Tag) was 2/2 and the “Rate der erhaltenen Graviditäten” value (Maus; Dosis 0,3 mg/Tier/Tag) was 3/3. The “Rate der erhaltenen Graviditäten” value (Maus; Dosis 0,003 mg/Tier/Tag) was 0/3, the IC50 (5α-Reduktase-Typ2) was 245 nM and the EC50 (PR-B; agonist mode, read-out: Agonismus IC50) was 0.25 nM. For the same compound, the IC50 (PR-B; antagonist mode, read-out: Antagonismus IC50) was 0.339 nM.
